Patent US10618918B2, “Substituted boronic acids as antimicrobials” (priority 2015, dated 2020)
Where two headings read alike, the source gives them in different places.

Assays:
[1] = tested on: KP1004 KPC-2; experiment: Biapenem potentiation (MPC@1), strain KP1004 KPC-2; type: cell-based; conditions: minimum BLI concentration inhibiting growth with biapenem 1 μg/mL; tested up to 40 μg/mL
Description: (§1) Biapenem was present in the test medium at 1 μg/mL. […] Table 3 summarizes the BLI potency of biapenem potentiation (MPC@1) for two strains overexpressing class A (KPC) and class D (OXA-48) carbapenemases. Biapenem MIC for each strain is also shown.

[2] = tested on: KP1086 OXA-48; experiment: Biapenem potentiation (MPC@1), strain KP1086 OXA-48; type: cell-based; conditions: minimum BLI concentration inhibiting growth with biapenem 1 μg/mL; tested up to 40 μg/mL
Description: as §1

[3] = tested on: AB1053 OXA-72; experiment: Meropenem potentiation (MPC@8), strain AB1053 OXA-72; type: cell-based, Acinetobacter baumannii; conditions: minimum BLI concentration inhibiting growth with meropenem 8 μg/mL; tested up to 20 μg/mL
[4] = tested on: AB1054 OXA-23; experiment: Meropenem potentiation (MPC@8), strain AB1054 OXA-23; type: cell-based, Acinetobacter baumannii; conditions: minimum BLI concentration inhibiting growth with meropenem 8 μg/mL; tested up to 20 μg/mL
[5] = biological target: T1, purified class A, C and D enzymes (β-lactamases) (Acinetobacter baumannii, UniProt Q9L4P2); experiment: biochemical; type: biochemical; conditions: purified OXA-23; nitrocefin (NCF) as reporter substrate
T1 construct: rows headed: Ki (OXA-23, NCF), uM; other: purified OXA-23; nitrocefin (NCF) as reporter substrate

[6] = biological target: purified class A, C and D enzymes (β-lactamases) (Enterobacter cloacae, UniProt P05364); experiment: biochemical; type: biochemical
[7] = biological target: purified class A, C and D enzymes (β-lactamases) (Escherichia coli, UniProt Q9L5C7); experiment: biochemical; type: biochemical; conditions: purified CTX-M-14; nitrocefin (NCF) as reporter substrate
[8] = biological target: purified class A, C and D enzymes (β-lactamases) (Klebsiella pneumoniae, UniProt Q6XEC0); experiment: biochemical; type: biochemical; conditions: purified OXA-48; nitrocefin (NCF) as reporter substrate
[9] = biological target: purified class A, C and D enzymes (β-lactamases) (Klebsiella pneumoniae, UniProt Q9F663); experiment: biochemical; type: biochemical; conditions: purified KPC-2; nitrocefin (NCF) as reporter substrate
[10] = biological target: T2, purified class A, C and D enzymes (β-lactamases) (Pseudomonas aeruginosa, UniProt P24735); experiment: biochemical; type: biochemical
T2 construct: rows headed: Ki (Pa-AmpC, NCF), uM; other: purified Pa-AmpC; nitrocefin (NCF) as reporter substrate

[11] = tested on: ECL1002; experiment: Aztreonam potentiation (MPC@4), strain ECL1002; conditions: minimum BLI concentration inhibiting growth with aztreonam 4 μg/mL; tested up to 40 μg/mL
[12] = tested on: ec308 SHV-5; experiment: Aztreonam potentiation (MPC@4), strain ec308 SHV-5; conditions: minimum BLI concentration inhibiting growth with aztreonam 4 μg/mL; tested up to 40 μg/mL
[13] = tested on: ec302 TEM-10; experiment: Aztreonam potentiation (MPC@4), strain ec302 TEM-10; conditions: minimum BLI concentration inhibiting growth with aztreonam 4 μg/mL; tested up to 40 μg/mL
[14] = tested on: KP1004 KPC-2; experiment: Aztreonam potentiation (MPC@4), strain KP1004 KPC-2; conditions: minimum BLI concentration inhibiting growth with aztreonam 4 μg/mL; tested up to 40 μg/mL
[15] = tested on: EC1010 CMY-6; experiment: Aztreonam potentiation (MPC@4), strain EC1010 CMY-6; conditions: minimum BLI concentration inhibiting growth with aztreonam 4 μg/mL; tested up to 40 μg/mL
[16] = tested on: KP1010 SHV-12; experiment: Aztreonam potentiation (MPC@4), strain KP1010 SHV-12; conditions: minimum BLI concentration inhibiting growth with aztreonam 4 μg/mL; tested up to 40 μg/mL
[17] = tested on: KP1009 CTX-M-15; experiment: Aztreonam potentiation (MPC@4), strain KP1009 CTX-M-15; conditions: minimum BLI concentration inhibiting growth with aztreonam 4 μg/mL; tested up to 40 μg/mL
[18] = tested on: KP1005 CTX-M-14; experiment: Tigemonam potentiation (MPC@4), strain KP1005 CTX-M-14; conditions: minimum BLI concentration inhibiting growth with tigemonam 4 μg/mL; tested up to 40 μg/mL

Chain of purified class A, C and D enzymes (β-lactamases) (Enterobacter cloacae, UniProt P05364) (P05364 21-381): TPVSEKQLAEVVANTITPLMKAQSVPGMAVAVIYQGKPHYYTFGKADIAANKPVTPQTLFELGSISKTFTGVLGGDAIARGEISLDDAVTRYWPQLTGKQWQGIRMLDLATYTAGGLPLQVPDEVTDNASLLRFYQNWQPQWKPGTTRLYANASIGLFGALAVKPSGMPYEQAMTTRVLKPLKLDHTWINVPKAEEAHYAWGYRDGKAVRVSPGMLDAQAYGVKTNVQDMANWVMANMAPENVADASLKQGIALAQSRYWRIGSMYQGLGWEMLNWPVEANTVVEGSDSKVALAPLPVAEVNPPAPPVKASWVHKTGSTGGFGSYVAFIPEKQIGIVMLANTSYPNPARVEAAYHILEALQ
T1 sequence (Q9L4P2 whole entry): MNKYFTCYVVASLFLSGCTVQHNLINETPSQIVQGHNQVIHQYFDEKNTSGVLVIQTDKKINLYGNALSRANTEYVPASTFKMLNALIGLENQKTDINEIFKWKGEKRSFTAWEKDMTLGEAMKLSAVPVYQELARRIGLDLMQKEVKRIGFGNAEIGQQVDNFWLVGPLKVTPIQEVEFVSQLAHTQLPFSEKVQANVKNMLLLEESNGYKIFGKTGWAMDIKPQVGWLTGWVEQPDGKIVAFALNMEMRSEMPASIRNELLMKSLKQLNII
T2 sequence (P24735 whole entry): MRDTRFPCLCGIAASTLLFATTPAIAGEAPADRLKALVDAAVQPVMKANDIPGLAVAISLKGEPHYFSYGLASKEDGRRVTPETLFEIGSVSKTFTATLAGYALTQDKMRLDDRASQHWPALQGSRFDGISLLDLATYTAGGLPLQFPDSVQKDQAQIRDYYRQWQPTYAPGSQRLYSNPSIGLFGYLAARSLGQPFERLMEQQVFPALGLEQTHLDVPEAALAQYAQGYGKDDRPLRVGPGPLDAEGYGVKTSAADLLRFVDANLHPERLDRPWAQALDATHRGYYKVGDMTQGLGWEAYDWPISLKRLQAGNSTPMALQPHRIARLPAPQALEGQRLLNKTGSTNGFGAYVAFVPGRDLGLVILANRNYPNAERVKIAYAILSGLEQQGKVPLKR
Chain of purified class A, C and D enzymes (β-lactamases) (Escherichia coli, UniProt Q9L5C7) (Q9L5C7 entry or part of it): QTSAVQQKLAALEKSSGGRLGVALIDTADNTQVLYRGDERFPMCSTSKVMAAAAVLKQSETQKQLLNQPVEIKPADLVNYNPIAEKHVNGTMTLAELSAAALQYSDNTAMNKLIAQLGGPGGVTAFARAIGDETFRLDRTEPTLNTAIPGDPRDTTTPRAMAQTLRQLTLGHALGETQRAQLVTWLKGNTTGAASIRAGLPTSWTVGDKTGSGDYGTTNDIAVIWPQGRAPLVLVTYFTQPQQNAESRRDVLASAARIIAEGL

Compound	BPM MPC1 KP1004 KPC-2 [1]	BPM MPC1 OXA-48 KP1086 [2]	MPM MPC8 AB1053 OXA-72 [3]	MPM MPC8 AB1054 OXA-23 [4]	Ki [5] [µM]	Ki (P99, NCF), uM [6]	Ki (CTX-M-14, NCF), uM [7]	Ki (OXA-48, NCF), uM [8]	Ki (KPC-2, NCF), uM [9]	Ki [10] [µM]	AZT MPC4 ECL1002 [11]	AZT MPC4 SHV-5 ec308 [12]	AZT MPC4 TEM-10 ec302 [13]	AZT MPC4 KPC-2 KP1004 [14]	AZT MPC4 CMY-6 EC1010 [15]	AZT MPC4 SHV-12 KP1010 [16]	AZT MPC4 CTX-M-15 KP1009 [17]	TIG MPC4 CTX-M-14 KP1005 [18]	Ki (P99, NCF), uM ([6]; purified P99, nitrocefin (NCF) as reporter substrate)	Ki ([10]; purified Pa-AmpC, nitrocefin (NCF) as reporter substrate, read-out: Ki (Pa-AmpC, NCF)) [µM]
O=C([O-])c1c(OCC2CC2)ccc2c1O[B-](O)(O)CC2.[Na+].[Na+] [Compound 45, Disodium; 8-(cyclopropylmethoxy)-4,4-dihydroxy-5-oxa-4-boranuidabicyclo[4.4.0]deca-1(6),7,9-triene-7-carboxylate]	X (X = MPC@1 ≤ 5 μg/mL)	X (X = MPC@1 ≤ 5 μg/mL)	X (X = MPC@1 ≤ 5 μg/mL)	X (X = MPC@1 ≤ 5 μg/mL)	< 0.1	X (key: X = Ki ≤ 0.1 μM; Y = 0.1 μM < Ki ≤ 1 μM; Z = Ki > 1 μM)	X (X = Ki ≤ 0.1 μM)	X (X = Ki ≤ 0.1 μM)	X (X = Ki ≤ 0.1 μM)	< 0.1	Y (Y = 5 μg/mL < MPC@4 ≤ 20 μg/mL)	Y (Y = 5 μg/mL < MPC@4 ≤ 20 μg/mL)	Y (Y = 5 μg/mL < MPC@4 ≤ 20 μg/mL)	X (X = MPC@4 ≤ 5 μg/mL)	X (X = MPC@4 ≤ 5 μg/mL)	X (X = MPC@4 ≤ 5 μg/mL)	Z (Z = MPC@4 > 20 μg/mL)	Z (Z = MPC@4 > 20 μg/mL)	–	–
NC(=O)COc1ccc2c(c1C(=O)O)OB(O)CC2 [Compound 46, 7-(2-Amino-2-oxo-ethoxy)-2-hydroxy-3,4-dihydro-1,2-benzoxaborinine-8-carboxylic acid]	X (X = MPC@1 ≤ 5 μg/mL)	Y (Y = 5 μg/mL < MPC@1 ≤ 20 μg/mL)	X (X = MPC@1 ≤ 5 μg/mL)	Y (Y = 5 μg/mL < MPC@1 ≤ 20 μg/mL)	< 0.1	–	X (X = Ki ≤ 0.1 μM)	X (X = Ki ≤ 0.1 μM)	X (X = Ki ≤ 0.1 μM)	–	X (X = MPC@4 ≤ 5 μg/mL)	X (X = MPC@4 ≤ 5 μg/mL)	X (X = MPC@4 ≤ 5 μg/mL)	X (X = MPC@4 ≤ 5 μg/mL)	X (X = MPC@4 ≤ 5 μg/mL)	X (X = MPC@4 ≤ 5 μg/mL)	X (X = MPC@4 ≤ 5 μg/mL)	Z (Z = MPC@4 > 20 μg/mL)	X (X = Ki ≤ 0.1 μM)	< 0.1
